Data as given in patent publication US20230219962A1, “PYRAZOLO[4,3-d]PYRIMIDINE DERIVATIVES AND METHODS OF USE THEREOF FOR THE TREATMENT OF CELLULAR PROLIFERATIVE DISORDERS” (Merck Sharp & Dohme LLC, priority 2020, published 2023).

Tests used:
[1] = biological target: T1, hTLR7 (Homo sapiens, UniProt Q9NYK1); assay: Human TLR7 Reporter Assay; assay type: cell-based; conditions: HEK-Blue hTLR7 cells, 16 hours, normalized to CL097 (6 μM) and DMSO
T1 construct: host or cells: HEK-Blue hTLR7 cells (HEK293-derived, own knowledge)
T1 sequence (Q9NYK1 27-1049): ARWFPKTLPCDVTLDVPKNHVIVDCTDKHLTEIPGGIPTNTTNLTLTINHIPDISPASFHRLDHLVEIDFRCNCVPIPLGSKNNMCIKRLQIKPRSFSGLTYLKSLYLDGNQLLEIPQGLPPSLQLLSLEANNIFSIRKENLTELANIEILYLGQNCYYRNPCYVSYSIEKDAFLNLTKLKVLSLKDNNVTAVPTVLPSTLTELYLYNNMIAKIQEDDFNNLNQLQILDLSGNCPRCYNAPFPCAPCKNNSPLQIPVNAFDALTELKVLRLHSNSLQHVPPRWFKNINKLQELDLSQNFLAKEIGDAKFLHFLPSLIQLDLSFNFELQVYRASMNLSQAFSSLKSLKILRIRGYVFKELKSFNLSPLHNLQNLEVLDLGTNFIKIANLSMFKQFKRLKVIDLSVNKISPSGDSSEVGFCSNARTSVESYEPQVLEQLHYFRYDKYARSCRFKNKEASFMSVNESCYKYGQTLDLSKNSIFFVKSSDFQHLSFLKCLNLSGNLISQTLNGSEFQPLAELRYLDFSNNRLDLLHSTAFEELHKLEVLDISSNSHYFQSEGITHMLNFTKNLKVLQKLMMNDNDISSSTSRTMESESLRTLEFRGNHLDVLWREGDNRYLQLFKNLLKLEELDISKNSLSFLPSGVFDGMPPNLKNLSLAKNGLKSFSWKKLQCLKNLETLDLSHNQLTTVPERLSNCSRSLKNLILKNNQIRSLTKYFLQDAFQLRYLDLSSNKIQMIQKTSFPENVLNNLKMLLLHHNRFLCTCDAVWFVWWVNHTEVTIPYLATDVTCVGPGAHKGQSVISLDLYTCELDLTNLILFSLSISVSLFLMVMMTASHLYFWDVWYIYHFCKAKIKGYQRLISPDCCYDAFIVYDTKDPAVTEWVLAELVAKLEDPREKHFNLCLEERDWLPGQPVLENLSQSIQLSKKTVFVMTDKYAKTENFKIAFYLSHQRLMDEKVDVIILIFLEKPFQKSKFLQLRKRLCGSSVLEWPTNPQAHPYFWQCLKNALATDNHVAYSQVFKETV
Description: (§1) HEK-Blue™ hTLR7 cells (Invivogen, San Diego, Calif.) were maintained at 37° C./5% CO2/90% relative humidity in Dulbecco's Modified Eagle's Medium with 10% fetal bovine serum, 100 units/mL penicillin, 100 μg/mL streptomycin, 100 μg/mL normocin, 10 μg/mL blasticidin, and 100 μg/mL zeocin. HEK-Blue™ hTLR7 cells were maintained at 10-90% confluence and used before passage 20. For this assay, test compounds were dissolved in DMSO, and 10-point serial 3-fold dilution series in DMSO were prepared in Echo Qualified 384-well Polypropylene Microplates (Labcyte, San Jose, Calif.). Assay plates (384-well flat, clear bottom, black polystyrene TC-treated microtiter plates; Corning, Corning, N.Y.) were prepared by dispensing 150 nL of test compounds, high control (CL097; Invivogen, San Diego, Calif.), and low control (DMSO) by ECHO acoustic dispenser (Labcyte, San Jose Calif.) followed by addition of 5 μL of HEK-Blue™ Detection assay media (Invivogen, San Diego, Calif.). HEK-Blue™ hTLR7 cells in HEK-Blue™ Detection assay media (20,000 cells per well in 45 μL of media) were added to the assay plate and incubated for 16 hours at 37° C./5% CO2/90% relative humidity. For detection, assay plates were removed from the incubator, allowed to cool to ambient temperature, centrifuged at 200×g for 1 minutes, and read with an EnSpire Multimode Plate Reader (Perkin Elmer, Waltham, Mass.) for absorbance at 620 nm. Test compound effects were normalized to the window defined by the controls, CL097 (6 μM), and DMSO. Calculated % effects were fit using a 4-parameter algorithm, and EC50 was reported.

[2] = biological target: T2, hTLR8 (Homo sapiens, UniProt Q9NR97); assay: Human TLR8 Reporter Assay; assay type: cell-based; conditions: HEK-Blue hTLR8 cells, 16 hours, normalized to tl8-506 (1 μM) and DMSO
T2 construct: host or cells: HEK-Blue hTLR8 cells (HEK293-derived, own knowledge)
T2 sequence (Q9NR97 27-1041): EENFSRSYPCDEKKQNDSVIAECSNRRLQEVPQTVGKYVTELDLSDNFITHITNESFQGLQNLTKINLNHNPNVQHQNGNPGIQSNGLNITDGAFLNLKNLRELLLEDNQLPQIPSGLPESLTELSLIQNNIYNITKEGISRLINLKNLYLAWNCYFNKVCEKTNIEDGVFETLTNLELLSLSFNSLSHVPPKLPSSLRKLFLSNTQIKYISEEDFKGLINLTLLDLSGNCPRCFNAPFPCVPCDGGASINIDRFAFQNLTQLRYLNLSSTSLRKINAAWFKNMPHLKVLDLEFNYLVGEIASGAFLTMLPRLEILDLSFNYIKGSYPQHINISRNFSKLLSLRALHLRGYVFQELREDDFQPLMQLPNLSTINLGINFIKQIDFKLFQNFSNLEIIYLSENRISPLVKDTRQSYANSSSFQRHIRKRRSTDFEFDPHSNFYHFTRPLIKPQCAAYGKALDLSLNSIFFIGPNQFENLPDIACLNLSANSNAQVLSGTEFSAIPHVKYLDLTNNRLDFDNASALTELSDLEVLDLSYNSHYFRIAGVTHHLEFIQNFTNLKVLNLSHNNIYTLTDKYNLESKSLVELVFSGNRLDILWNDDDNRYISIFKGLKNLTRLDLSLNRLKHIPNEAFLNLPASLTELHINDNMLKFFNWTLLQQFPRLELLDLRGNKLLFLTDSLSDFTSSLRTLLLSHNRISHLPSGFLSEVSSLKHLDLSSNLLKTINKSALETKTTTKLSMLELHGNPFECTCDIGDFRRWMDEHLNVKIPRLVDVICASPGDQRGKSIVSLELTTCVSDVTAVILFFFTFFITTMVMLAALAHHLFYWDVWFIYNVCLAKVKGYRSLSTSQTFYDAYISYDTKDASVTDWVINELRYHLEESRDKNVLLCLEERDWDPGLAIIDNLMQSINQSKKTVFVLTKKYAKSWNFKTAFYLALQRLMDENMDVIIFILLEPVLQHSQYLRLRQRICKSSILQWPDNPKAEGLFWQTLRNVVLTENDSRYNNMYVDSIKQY
Description: as §1, with “hTLR8” for “hTLR7”, “(tl8-506;” for “(CL097;”, “tl8-506 (1” for “CL097 (6”

Compound	EC50 [1] [nM]	EC50 [2] [nM]
CCC[C@@H](CO)Nc1nc(N)nc2cn(Cc3c(OC)cc(CNC)cc3OC)nc12 [Compound 154]	1080	4150
CCCCNc1nc(N)nc2cn(CCc3ccccc3OC)nc12 [Compound 36]	3100	> 29900
CCCCNc1nc(N)nc2cn(CCCCN)nc12 [Compound 42]	> 29900	2980
CCCCNc1nc(N)nc2cn(Cc3ccc(C(N)CCN)cc3OC)nc12 (stereo not shown) [Compound 228]	2370	7020
CCC[C@@H](CO)Nc1nc(N)nc2cn(Cc3c(OC)cc(CN(C)CCN)cc3OC)nc12 [Compound 213]	4750	2230
C=CCN(C)Cc1cc(OC)c(Cn2cc3nc(N)nc(N[C@H](CO)CCC)c3n2)c(OC)c1 [Compound 161]	42.2	91
CCCCNc1nc(N)nc2cn(Cc3ccc4c(c3)CCC4N)nc12 (stereo not shown) [Compound 238]	254	1880
CCCCNc1nc(N)nc2cn(Cc3cc(CN4CCN(C(=O)C5CCC(CN6C(=O)C=CC6=O)CC5)CC4)ccc3OC)nc12 (stereo not shown) [Compound 71]	267	3040
CCCCNc1nc(N)nc2cn(Cc3c(OC)cc(CN)cc3OC)nc12 [Compound 66]	493	199
CCCCNc1nc(N)nc2cn(Cc3ccc(C4CCCN4)cc3OC)nc12 (stereo not shown) [Compound 239]	154	2600
CCCCNc1nc(N)nc2cn(Cc3ccc(C4CCCN4)cc3OC)nc12 (stereo not shown) [Compound 236]	241	2870
CCCCNc1nc(N)nc2cn(Cc3ccc(C(C)N(C)CCC)cc3OC)nc12 (stereo not shown) [Compound 241]	36	725
CCCCNc1nc(N)nc2cn(Cc3ccc(N4CCNCC4)cc3OC)nc12 [Compound 58]	228	345
CCCCNc1nc(N)nc2cn(Cc3ccccc3OC)nc12 [Compound 1]	665	4900
CCCCNc1nc(N)nc2cn(Cc3c(OC)cc(CNC(=O)C4CCC(CN5C(=O)CC(SC[C@H](N)C(=O)O)C5=O)CC4)cc3OC)nc12 (stereo partly shown) [Compound 92]	2260	11600
CCCCNc1nc(N)nc2cn(Cc3ccc(CCNC)cc3OC)nc12 [Compound 147]	180	265
COc1cccc(OC)c1Cn1cc2nc(N)nc(NCC(C)O)c2n1 (stereo not shown) [Compound 49]	7290	> 29900
CCCCNc1nc(N)nc2cn(Cc3c(OC)cccc3OCCCCC(=O)OC)nc12 [Compound 207]	806	2340
CCCCNc1nc(N)nc2cn(Cc3c(OC)ccc(CN4C(=O)C=CC4=O)c3OC)nc12 [Compound 95]	3350	4330
CCCC(Nc1nc(N)nc2cn(Cc3c(OC)cccc3OC)nc12)C(F)F (stereo not shown) [Compound 135]	343	> 9980
CCCCNc1nc(N)nc2cn(Cc3c(F)cccc3F)nc12 [Compound 41]	68.6	710
CCCCNc1nc(N)nc2cn(C(C)c3ccccc3OC)nc12 (stereo not shown) [Compound 102]	1410	> 9980
CCCCNc1nc(N)nc2cn(Cc3c(OC)cc(N4C(=O)C=CC4=O)cc3OC)nc12 [Compound 98]	414	> 9980
CCC[C@H](CO)Nc1nc(N)nc2cn(Cc3c(OC)cccc3OC)nc12 [Compound 107]	213	3020
CCC(C)CNc1nc(N)nc2cn(Cc3c(OC)cccc3OC)nc12 (stereo not shown) [Compound 56]	369	> 9980
CCCCNc1nc(N)nc2cn(Cc3c(OC)cc(CN4C(=O)C=CC4=O)cc3OC)nc12 [Compound 103]	97.9	422
CCCCNc1nc(N)nc2cn(Cc3ccc(CN(C)C)o3)nc12 [Compound 186]	190	278
CCCCNc1nc(N)nc2cn(Cc3ccccn3)nc12 [Compound 97]	265	2370
CCCCNc1nc(N)nc2cn(Cc3cc(CN)ccc3OC)nc12 [Compound 146]	628	637
